Assay results from DBAASP.
Values after ≈ are worked out from the molar mass of the structure shown. One block for each compound: values may come before it.

Tests used:
Test in all cases: ≥ marks a high value that may be exact or a test limit, other limits are often not marked, values filed in µg/mL are converted to µM
[1] = test system: Escherichia coli ATCC 25922
[2] = test system: Pseudomonas aeruginosa Ps4
Bacillus subtilis = test system: Bacillus subtilis
[3] = test system: Candida albicans ATCC 2002
[4] = test system: Staphylococcus aureus ATCC 2592
Escherichia coli JW0013 = test system: Escherichia coli JW0013
Escherichia coli UB1005 = test system: Escherichia coli UB1005
[5] = test system: Pseudomonas aeruginosa PAO1
[6] = test system: Staphylococcus aureus ATCC 25923

- MIC (Bacillus subtilis): 20.3 µM (≈ 50 µg/mL)
- MIC [3]: 10.2 µM (≈ 25 µg/mL)
- MIC [1]: 20.3 µM (≈ 50 µg/mL)
- MIC [4]: 5.08 µM (≈ 12.5 µg/mL)
SMILES: CC[C@H](C)[C@H](NC(=O)CNC(=O)[C@H](CO)NC(=O)[C@H](CCCN=C(N)N)NC(=O)[C@@H](N)Cc1ccccc1)C(=O)N[C@@H](CC(C)C)C(=O)N[C@@H](CCCCN)C(=O)N[C@@H](CC(C)C)C(=O)N[C@@H](C)C(=O)N[C@@H](CO)C(=O)N[C@@H](CCCCN)C(=O)N[C@H](C(=O)N1CCC[C@H]1C(=O)N[C@@H](CO)C(=O)N[C@H](C(=O)N[C@@H](CC(C)C)C(=O)N[C@H]1CSSC[C@@H](C(=O)O)NC(=O)[C@H](CC(N)=O)NC(=O)[C@H](CCCCN)NC(=O)[C@H](CC(C)C)NC(=O)[C@H](C(C)C)NC(=O)[C@H](C)NC1=O)C(C)C)[C@@H](C)CC [FRSGILKLASKIPSVLCAVLKNC]

- MIC [2]: ≥ 176 µM
SMILES: CC[C@H](C)[C@H](NC(=O)[C@H](CC(N)=O)NC(=O)[C@H](CCCN=C(N)N)NC(=O)[C@H](CCC(N)=O)NC(=O)[C@H](Cc1c[nH]c2ccccc12)NC(=O)[C@@H](N)Cc1ccccc1)C(=O)N[C@@H](CCCN=C(N)N)C(=O)N[C@@H](CCCCN)C(=O)N[C@@H](CC(C)C)C(=O)N[C@@H](CCCN=C(N)N)C(N)=O [FWQRNIRKLR]

- MIC [2]: ≥ 161 µM
SMILES: NC(=O)CC[C@H](NC(=O)[C@H](Cc1c[nH]c2ccccc12)NC(=O)[C@@H](N)Cc1ccccc1)C(=O)N[C@@H](CCCN=C(N)N)C(=O)N[C@@H](CC(N)=O)C(=O)N[C@@H](Cc1c[nH]c2ccccc12)C(=O)N[C@@H](CCCN=C(N)N)C(=O)N[C@@H](Cc1ccccc1)C(=O)N[C@@H](CCCN=C(N)N)C(=O)N[C@@H](CCCN=C(N)N)C(N)=O [FWQRNWRFRR]

- MIC (Escherichia coli JW0013): 1.99 µM (≈ 4.8 µg/mL)
SMILES: CC[C@H](C)[C@H](NC(=O)[C@H](CCCN=C(N)N)NC(=O)[C@H](CCCN=C(N)N)NC(=O)[C@@H]1CCCN1C(=O)[C@@H]1CCCN1C(=O)[C@H](CCCN=C(N)N)NC(=O)[C@@H]1CCCN1C(=O)[C@H](CCCN=C(N)N)NC(=O)[C@@H]1CCCN1C(=O)[C@H](CC(C)C)NC(=O)[C@H](Cc1ccc(O)cc1)NC(=O)[C@@H]1CCCN1C(=O)[C@H](CC(=O)O)NC(=O)[C@H](CCCCN)NC(=O)[C@H](CC(=O)O)NC(=O)[C@@H](N)C(C)C)C(=O)N[C@@H](Cc1ccc(O)cc1)C(=O)N[C@@H](CC(N)=O)C(=O)N[C@@H](CCCN=C(N)N)C(N)=O [VDKDPYLPRPRPPRRIYNR]

- MIC (Escherichia coli JW0013): 2.04 µM (≈ 4.8 µg/mL)
SMILES: CC[C@H](C)[C@H](NC(=O)[C@H](CCCN=C(N)N)NC(=O)[C@H](CCCN=C(N)N)NC(=O)[C@@H]1CCCN1C(=O)[C@@H]1CCCN1C(=O)[C@H](CCCN=C(N)N)NC(=O)[C@@H]1CCCN1C(=O)[C@H](CCCN=C(N)N)NC(=O)[C@@H]1CCCN1C(=O)[C@H](CC(C)C)NC(=O)[C@H](CCCCN)NC(=O)[C@@H]1CCCN1C(=O)[C@@H]1CCCN1C(=O)[C@H](CCCCN)NC(=O)[C@H](CC(=O)O)NC(=O)[C@@H](N)C(C)C)C(=O)N[C@@H](Cc1ccc(O)cc1)C(=O)N[C@@H](CC(N)=O)C(=O)N[C@@H](CCCN=C(N)N)C(N)=O [VDKPPKLPRPRPPRRIYNR]

- MIC (Escherichia coli JW0013): 0.524 µM (≈ 1.3 µg/mL)
SMILES: CC[C@H](C)[C@H](NC(=O)[C@H](CCCN=C(N)N)NC(=O)[C@H](CCCN=C(N)N)NC(=O)[C@@H]1CCCN1C(=O)[C@@H]1CCCN1C(=O)[C@H](CCCN=C(N)N)NC(=O)[C@@H]1CCCN1C(=O)[C@H](CCCN=C(N)N)NC(=O)[C@@H]1CCCN1C(=O)[C@H](CC(C)C)NC(=O)[C@H](CCCN=C(N)N)NC(=O)[C@H](Cc1cnc[nH]1)NC(=O)[C@H](CCCN=C(N)N)NC(=O)[C@H](CCCCN)NC(=O)[C@H](CC(=O)O)NC(=O)[C@@H](N)C(C)C)C(=O)N[C@@H](Cc1ccc(O)cc1)C(=O)N[C@@H](CC(N)=O)C(=O)N[C@@H](CCCN=C(N)N)C(N)=O [VDKRHRLPRPRPPRRIYNR]

The next lines start with the compound.

SMILES: CCC(C)C(NC(=O)C(CC(N)=O)NC(=O)C(CCCN=C(N)N)NC(=O)C(CCC(N)=O)NC(=O)C(Cc1c[nH]c2ccccc12)NC(=O)C(CCC(N)=O)NC(=O)C(N)Cc1ccccc1)C(=O)NC(CCCN=C(N)N)C(=O)NC(CCCCN)C(=O)NC(C(=O)NC(CCCN=C(N)N)C(N)=O)C(C)C (centres undefined) [FQWQRNIRKVR]
- MIC [1]: > 163 µM
- MIC [2]: ≥ 163 µM

SMILES: CC[C@H](C)[C@H](NC(=O)[C@H](CC(N)=O)NC(=O)[C@H](CCCN=C(N)N)NC(=O)[C@H](C)NC(=O)[C@H](Cc1c[nH]c2ccccc12)NC(=O)[C@@H](NC(=O)[C@@H](N)Cc1ccccc1)C(C)C)C(=O)N[C@@H](CCCN=C(N)N)C(=O)N[C@@H](CCCCN)C(=O)N[C@H](C(=O)N[C@@H](CCCN=C(N)N)C(N)=O)C(C)C [FVWARNIRKVR]
- MIC [2]: ≥ 173 µM

SMILES: CC[C@H](C)[C@H](NC(=O)[C@H](CCCN=C(N)N)NC(=O)[C@@H](NC(=O)[C@H](CC(N)=O)NC(=O)[C@H](CCCN=C(N)N)NC(=O)CNC(=O)[C@H](Cc1c[nH]c2ccccc12)NC(=O)[C@@H](N)Cc1ccccc1)[C@@H](C)CC)C(=O)N[C@@H](CCCN=C(N)N)C(=O)N[C@@H](CCCN=C(N)N)C(N)=O [FWGRNIRIRR]
- MIC [2]: ≥ 182 µM

SMILES: CC[C@H](C)[C@H](NC(=O)[C@H](CCCCN)NC(=O)[C@H](CCCN=C(N)N)NC(=O)[C@@H](NC(=O)[C@H](CC(N)=O)NC(=O)[C@H](CCCN=C(N)N)NC(=O)[C@H](CCC(N)=O)NC(=O)[C@H](Cc1c[nH]c2ccccc12)NC(=O)[C@@H](N)Cc1ccccc1)[C@@H](C)CC)C(=O)N[C@@H](CCCN=C(N)N)C(N)=O [FWQRNIRKIR]
- MIC [2]: ≥ 176 µM

SMILES: CC[C@H](C)[C@H](NC(=O)[C@H](CC(N)=O)NC(=O)[C@H](CCCN=C(N)N)NC(=O)[C@H](CCC(N)=O)NC(=O)[C@H](Cc1c[nH]c2ccccc12)NC(=O)[C@@H](N)Cc1ccccc1)C(=O)N[C@@H](Cc1c[nH]c2ccccc12)C(=O)N[C@@H](CCCN=C(N)N)C(=O)N[C@@H](CCCN=C(N)N)C(N)=O [FWQRNIWRR]
- MIC [2]: ≥ 184 µM

SMILES: CC[C@H](C)[C@@H]1NC(=O)[C@H](CO)NC(=O)[C@H](CCCCN)NC(=O)[C@H]([C@@H](C)O)NC(=O)[C@H](Cc2c[nH]c3ccccc23)NC(=O)[C@@H](NC(=O)CNC(=O)[C@H](CCCCN)NC(=O)[C@@H](N)CC(C)C)CSSC[C@@H](C(=O)N[C@@H](Cc2ccccc2)C(=O)O)NC(=O)[C@@H]2CCCN2C(=O)[C@H](CCCCN)NC(=O)[C@@H]2CCCN2C(=O)[C@@H]2CCCN2C1=O [LKGCWTKSIPPKPCF]
- MIC (Bacillus subtilis): 1.37 µM (≈ 2.34 µg/mL)
- MIC [3]: 2.75 µM (≈ 4.68 µg/mL)
- MIC [1]: 1.37 µM (≈ 2.34 µg/mL)
- MIC [4]: 1.03 µM (≈ 1.76 µg/mL)

SMILES: CC[C@H](C)[C@H](NC(=O)[C@H](CCCN=C(N)N)NC(=O)[C@H](CCCN=C(N)N)NC(=O)[C@@H]1CCCN1C(=O)[C@@H]1CCCN1C(=O)[C@H](CCCN=C(N)N)NC(=O)[C@H](CCCN=C(N)N)NC(=O)[C@H](CCCN=C(N)N)NC(=O)[C@@H]1CCCN1C(=O)[C@H](CCCN=C(N)N)NC(=O)[C@H](Cc1ccc(O)cc1)NC(=O)[C@@H]1CCCN1C(=O)[C@H](CCCCN)NC(=O)[C@H](CCCCN)NC(=O)[C@H](CC(=O)O)NC(=O)[C@@H](N)C(C)C)C(=O)N[C@@H](Cc1ccc(O)cc1)C(=O)N[C@@H](CC(N)=O)C(=O)N[C@@H](CCCN=C(N)N)C(N)=O [VDKKPYRPRRRPPRRIYNR]
- MIC (Escherichia coli JW0013): 0.634 µM (≈ 1.6 µg/mL)

SMILES: CC[C@H](C)[C@H](NC(=O)[C@H](CCCN=C(N)N)NC(=O)[C@H](CCCN=C(N)N)NC(=O)[C@@H]1CCCN1C(=O)[C@@H]1CCCN1C(=O)[C@H](CCCN=C(N)N)NC(=O)[C@@H]1CCCN1C(=O)[C@H](CCCN=C(N)N)NC(=O)[C@@H]1CCCN1C(=O)[C@H](CC(C)C)NC(=O)[C@H](CCCN=C(N)N)NC(=O)[C@@H]1CCCN1C(=O)[C@@H]1CCCN1C(=O)[C@H](CCCCN)NC(=O)[C@H](CC(=O)O)NC(=O)[C@@H](N)C(C)C)C(=O)N[C@@H](Cc1ccc(O)cc1)C(=O)N[C@@H](CC(N)=O)C(=O)N[C@@H](CCCN=C(N)N)C(N)=O [VDKPPRLPRPRPPRRIYNR]
- MIC (Escherichia coli JW0013): 1.38 µM (≈ 3.3 µg/mL)

SMILES: CC[C@H](C)[C@H](NC(=O)[C@H](CCCN=C(N)N)NC(=O)[C@H](CCCN=C(N)N)NC(=O)[C@@H]1CCCN1C(=O)[C@@H]1CCCN1C(=O)[C@H](CCCN=C(N)N)NC(=O)[C@H](CCCN=C(N)N)NC(=O)[C@H](CCCN=C(N)N)NC(=O)[C@@H]1CCCN1C(=O)[C@H](CC(C)C)NC(=O)[C@H](Cc1ccc(O)cc1)NC(=O)[C@@H]1CCCN1C(=O)[C@@H]1CCCN1C(=O)[C@H](CCCCN)NC(=O)[C@H](CC(=O)O)NC(=O)[C@@H](N)C(C)C)C(=O)N[C@@H](Cc1ccc(O)cc1)C(=O)N[C@@H](CC(N)=O)C(=O)N[C@@H](CCCN=C(N)N)C(N)=O [VDKPPYLPRRRPPRRIYNR]
- MIC (Escherichia coli JW0013): 0.98 µM (≈ 2.4 µg/mL)
- MIC (Escherichia coli UB1005): 2.04 µM (≈ 5 µg/mL)
- MIC [5]: 26.1 µM (≈ 64 µg/mL)
- MIC [6]: 6.53 µM (≈ 16 µg/mL)

SMILES: CC[C@H](C)[C@H](NC(=O)[C@H](CC(C)C)NC(=O)[C@H](CC(=O)O)NC(=O)[C@H](CCC(N)=O)NC(=O)[C@H](CCC(N)=O)NC(=O)[C@H](CC(C)C)NC(=O)[C@H](CCC(=O)O)NC(=O)[C@@H]1CCCN1C(=O)[C@@H](N)Cc1ccc(O)cc1)C(=O)N[C@@H](C)C(=O)N[C@@H](CCCN=C(N)N)C(=O)N[C@@H](CC(C)C)C(=O)N[C@@H](CC(C)C)C(=O)O [YPELQQDLIARLL]
- MIC (Bacillus subtilis): 1.97 µM (≈ 3.1 µg/mL)
- MIC [3]: 15.9 µM (≈ 25 µg/mL)
- MIC [1]: 31.8 µM (≈ 50 µg/mL)
- MIC [4]: 4.01 µM (≈ 6.3 µg/mL)
